Measurements reported in US20170131285A1, “METHODS AND COMPOSITIONS FOR DIAGNOSING, MONITORING AND TREATING CANCER” (INSERM (Institut National de la Sante et de la Recherche …, priority 2014, published 2017).
Where no end group is shown, it is not given here.

Assays:
[1] = test system: primary MDSC cells; test: Activation of primary MDSC by exosomes (pSTAT3, IL-6, IL-10, IFNγ in T cell co-culture); format: cell-based; settings: primary MDSC from mouse spleen, exosomes from B16F10, A8 16 μM
Description: FIG. 8: A8 blocks the activation of primary MDSC cells. A) A representative image of a western blot showing the kinetics of STAT3 phosphorylation in MDSC cells incubated or not with exosomes isolated from B16F10 cells together with a peptide control (MDSC/TDE) or A8 (MDSC/TDE/A8). B-C) IL-6 (B) and IL-10 (C) concentration was determined by ELISA in the supernatant of MDSC cells incubated or not for 24 h with exosomes (from B16F10) in the absence or presence of A8 (16 μM). D) IFNγ concentration was determined by ELISA in the supernatant of co-cultured MDSC and T lymphocytes incubated or not for 5 days with exosomes (from B16F10) in the absence or presence of A8 ([…]). **, p<0.01; *, p<0.1 (n=3).
MSC2 (2·10^6) or MDSC (2·10^6) were incubated alone or with exosomes (from B16F10, CT26, HCT116, SW480) in the absence or presence of A8 or A17 (16 μM) during 6 hours (RPMI 10% FBS, 5% of CO2 at 37° C.). Every 2 hours, […] cells were sampled and centrifugated 5 min at 300 g. Cells were lysed in lysis buffer (50 mM HEPES (pH 7.6), 150 mM NaCl, 5 mM EDTA, and 0.1% NP40 and anti-phosphatases, Roche). Then, pSTAT3 and STAT3 expression were analyzed by western blotting.
Single-cell suspensions were prepared from spleens, and red cells were removed using ammonium chloride lysis buffer. […] All events were acquired by a BD Bioscience LSR-II device and analyzed with FlowJo (Tree Star). […]

[2] = after systemic administration; cited from earlier work
[3] = test system: MSC2 cells; test: IL-6 ELISA in supernatant of MSC2 cells incubated with exosomes; format: cell-based; settings: exosomes from B16F10, 24 h
Description: FIG. 4: A8 blocks the activation and proliferation of MSC2 cells. (A) IL-6 concentration was determined by ELISA in the supernatant of MSC2 cells incubated or not for 24 h with exosomes (from B16F10) in the presence or absence of A8. *, p<0.05, (n=3). (B) A representative image of a western blot showing the kinetics of STAT3 phosphorylation in MCS2 cells incubated or not with exosomes isolated from B16F10, CT26 or HCT116 cells together with a peptide control (TDE) or A8 (TDE/A8). 14-3-3 is used as a loading control. In the right panels, the amount of pSTAT3 was quantified by densitometric analysis. *, p<0.05, n=4.
MSC2 cells were incubated alone or co-incubated with exosomes from B16F10 cells and/or A8 (during 24 h). Then, the supernatant was collected and centrifuged at 300 g at 4° C. for 5 min and analyzed with IL-6 ELISA assay (BD biosciences) according to the manufacturers' protocol.
Supernatants, collected from MSC2 or MDSC or co-cultured cells incubated alone or with exosomes from B16F10 cells and/or A8 (8 or 16 μM) were analyzed with IL-6, IL-10 and IFN gamma ELISA assay (BD biosciences) according to the manufacturers' protocol.

SPWPRPTY [Aptamer A8, SPWPRPTY]
MDSC activation markers (IL6 release, STAT-3 phosphorylation, IL10 release, IFNgamma release by T cells) [1]: blocks all MDSC activation markers
biodistribution (localization of the peptide) [2]: localizes mainly in the tumor area
IL-6 production by MSC2 stimulated by tumor-derived exosomes [3]: abrogated
